Results as given in ChEMBL document CHEMBL1201862, “PubChem BioAssay data set” (2004).
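Test compounds were applied to cells in 96-well plates for 48 hours at 5 doses. GI50 marks 50% less growth.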 Active and inactive are the calls of the source. No stated cut-off is given here; in the data, active = GI50 up to about 1.1 µM and inactive = higher.

How the values were obtained:
Assay in all cases: NCI-60 cell line screen, 48 h
786-0 = tested on: 786-0
BT-549 = tested on: BT-549
COLO 205 = tested on: COLO 205
DU-145 = tested on: DU-145
HCC 2998 = tested on: HCC 2998
HOP-62 = tested on: HOP-62
K562 = tested on: K562
KM12 = tested on: KM12
NCI-H226 = tested on: NCI-H226
NCI/ADR-RES = tested on: NCI/ADR-RES
OVCAR-5 = tested on: OVCAR-5
OVCAR-8 = tested on: OVCAR-8
RPMI-8226 = tested on: RPMI-8226
SF-295 = tested on: SF-295
SW-620 = tested on: SW-620
A549 = tested on: A549
LOX IMVI = tested on: LOX IMVI
SK-OV-3 = tested on: SK-OV-3
UACC-62 = tested on: UACC-62

Measured: GI50

CC(C)(NO)/C(=N\O)c1ccccc1
inactive: 786-0 > 10 µM | BT-549 > 10 µM | COLO 205 > 10 µM | DU-145 > 10 µM | HCC 2998 > 10 µM | HOP-62 > 10 µM | K562 > 10 µM | KM12 > 10 µM | NCI-H226 > 10 µM | NCI/ADR-RES > 10 µM | OVCAR-5 > 10 µM | OVCAR-8 > 10 µM | RPMI-8226 > 10 µM | SF-295 > 10 µM | SW-620 > 10 µM

CCSc1c(C)c2c(n(Cc3ccc(OC)cc3)c1=O)Cc1ccccc1C2
inactive: 786-0 11 µM | A549 21.9 µM | BT-549 22.9 µM | COLO 205 35.6 µM | DU-145 24.7 µM | HCC 2998 13.6 µM | HOP-62 23.1 µM | K562 16.5 µM | KM12 25.1 µM | LOX IMVI 11.9 µM | NCI-H226 36.5 µM | NCI/ADR-RES 5.08 µM | OVCAR-5 46.9 µM | OVCAR-8 14.9 µM | SF-295 32.1 µM | SK-OV-3 39.5 µM | SW-620 15.5 µM | UACC-62 22.9 µM

CC(=O)NCC1OC2COC(c3ccccc3)OC2C(NC(=O)c2ccccc2)C1OC(=O)c1ccccc1 (stereo not given)
inactive: 786-0 > 100 µM | A549 > 100 µM | BT-549 > 100 µM | COLO 205 > 100 µM | DU-145 > 100 µM | HCC 2998 > 100 µM | HOP-62 > 100 µM | K562 > 100 µM | KM12 > 100 µM | LOX IMVI > 100 µM | NCI-H226 > 100 µM | NCI/ADR-RES > 100 µM | OVCAR-5 > 100 µM | OVCAR-8 > 100 µM | SF-295 > 100 µM | SK-OV-3 > 100 µM | SW-620 > 100 µM | UACC-62 > 100 µM

COC(=NCCC1=CCCCC1)OC
inactive: 786-0 81.3 µM | A549 69.3 µM | BT-549 > 100 µM | COLO 205 16.3 µM | DU-145 > 100 µM | HCC 2998 22 µM | HOP-62 > 100 µM | K562 36 µM | KM12 78.9 µM | NCI/ADR-RES 58.9 µM | OVCAR-5 51.3 µM | OVCAR-8 75.7 µM | RPMI-8226 32.1 µM | SF-295 > 100 µM | SK-OV-3 > 100 µM | SW-620 62.8 µM | UACC-62 > 100 µM

CN(C)c1ccc(/C=C2\N=C(N/N=C/c3ccc(N(C)C)cc3)NC2=O)cc1
inactive: 786-0 > 100 µM | A549 92.5 µM | BT-549 > 100 µM | COLO 205 22.8 µM | DU-145 28.1 µM | HCC 2998 > 100 µM | HOP-62 > 100 µM | KM12 61.1 µM | NCI-H226 > 100 µM | NCI/ADR-RES > 100 µM | OVCAR-5 > 100 µM | OVCAR-8 24.8 µM | RPMI-8226 76.6 µM | SF-295 58.2 µM | SK-OV-3 > 100 µM | SW-620 > 100 µM | UACC-62 > 100 µM

N#CCCN(CCC#N)c1ccc(C(=N/c2ccc(F)cc2)/N=N/c2ccc(Cl)cc2)cc1
inactive: 786-0 > 100 µM | A549 > 100 µM | BT-549 > 100 µM | COLO 205 > 100 µM | DU-145 > 100 µM | HCC 2998 > 100 µM | HOP-62 > 100 µM | K562 > 100 µM | KM12 > 100 µM | NCI-H226 > 100 µM | NCI/ADR-RES > 100 µM | OVCAR-5 > 100 µM | OVCAR-8 > 100 µM | RPMI-8226 > 100 µM | SF-295 > 100 µM | SK-OV-3 > 100 µM | SW-620 > 100 µM | UACC-62 > 100 µM

O=c1[nH]cc(/N=C/c2cc(Cl)ccc2O)c(=O)[nH]1
inactive: 786-0 22 µM | A549 > 100 µM | BT-549 4.84 µM | COLO 205 25.3 µM | DU-145 21.6 µM | HCC 2998 23.6 µM | HOP-62 20.6 µM | K562 7.26 µM | KM12 26.2 µM | NCI-H226 19.2 µM | NCI/ADR-RES 13.1 µM | OVCAR-5 22.4 µM | OVCAR-8 4.35 µM | RPMI-8226 5.93 µM | SF-295 14.1 µM | SK-OV-3 18.7 µM | UACC-62 21.9 µM

C=CCSC1=N/C(=C\c2ccc(OC)cc2)C(=O)N1CC=C
inactive: 786-0 25.5 µM | A549 30.9 µM | BT-549 27 µM | COLO 205 20.4 µM | DU-145 42.2 µM | HCC 2998 23.9 µM | HOP-62 74.6 µM | K562 23.7 µM | KM12 21.9 µM | LOX IMVI 33 µM | NCI/ADR-RES 27.6 µM | OVCAR-5 57.8 µM | OVCAR-8 36.2 µM | RPMI-8226 15.5 µM | SF-295 35.3 µM | SK-OV-3 > 100 µM | SW-620 35.2 µM | UACC-62 30.3 µM

N/N=c1\[nH]c2ccccc2o1
inactive: 786-0 86.7 µM | A549 > 100 µM | BT-549 > 100 µM | COLO 205 > 100 µM | DU-145 > 100 µM | HCC 2998 > 100 µM | K562 89.7 µM | KM12 > 100 µM | LOX IMVI > 100 µM | NCI-H226 > 100 µM | NCI/ADR-RES 52.7 µM | OVCAR-5 > 100 µM | OVCAR-8 64.6 µM | RPMI-8226 67.6 µM | SW-620 > 100 µM | UACC-62 > 100 µM

C[C@H]1O[C@@H](c2c(O)ccc3ccccc23)C[C@@H](N(C)C)C1O (stereo not given in full)
inactive: 786-0 91.6 µM | A549 > 100 µM | BT-549 > 100 µM | COLO 205 65.3 µM | DU-145 > 100 µM | HCC 2998 36.6 µM | HOP-62 > 100 µM | K562 > 100 µM | LOX IMVI > 100 µM | NCI-H226 43.7 µM | NCI/ADR-RES > 100 µM | OVCAR-5 > 100 µM | OVCAR-8 > 100 µM | SF-295 > 100 µM | SK-OV-3 > 100 µM | SW-620 > 100 µM | UACC-62 81.3 µM

Oc1ccc(/C=N/c2nccs2)c(O)c1
inactive: 786-0 > 100 µM | A549 > 100 µM | BT-549 > 100 µM | COLO 205 33.3 µM | DU-145 > 100 µM | HCC 2998 30.2 µM | HOP-62 > 100 µM | KM12 16 µM | LOX IMVI > 100 µM | NCI-H226 > 100 µM | NCI/ADR-RES > 100 µM | OVCAR-5 > 100 µM | OVCAR-8 > 100 µM | SF-295 > 100 µM | SK-OV-3 > 100 µM | UACC-62 > 100 µM

Cc1ccc(S(=O)(=O)C2=C([Si](C)(C)C)C3CC2[C@@H]2C4C=CC(CC4)[C@H]32)cc1 (stereo not given in full)
inactive: 786-0 34.6 µM | A549 > 100 µM | BT-549 > 100 µM | COLO 205 > 100 µM | DU-145 > 100 µM | HCC 2998 > 100 µM | HOP-62 40.8 µM | K562 > 100 µM | KM12 > 100 µM | LOX IMVI > 100 µM | NCI-H226 95.3 µM | NCI/ADR-RES > 100 µM | OVCAR-5 > 100 µM | OVCAR-8 > 100 µM | SF-295 28.4 µM | SK-OV-3 45.1 µM | SW-620 > 100 µM | UACC-62 60.5 µM
